The assay addresses Indoleamine 2,3-dioxygenase 1 (Homo sapiens, UniProt P14902). In words: Inhibition of 2,3 dioxygenase.
Indoleamine 2,3-dioxygenase 1, sequence (P14902 whole entry): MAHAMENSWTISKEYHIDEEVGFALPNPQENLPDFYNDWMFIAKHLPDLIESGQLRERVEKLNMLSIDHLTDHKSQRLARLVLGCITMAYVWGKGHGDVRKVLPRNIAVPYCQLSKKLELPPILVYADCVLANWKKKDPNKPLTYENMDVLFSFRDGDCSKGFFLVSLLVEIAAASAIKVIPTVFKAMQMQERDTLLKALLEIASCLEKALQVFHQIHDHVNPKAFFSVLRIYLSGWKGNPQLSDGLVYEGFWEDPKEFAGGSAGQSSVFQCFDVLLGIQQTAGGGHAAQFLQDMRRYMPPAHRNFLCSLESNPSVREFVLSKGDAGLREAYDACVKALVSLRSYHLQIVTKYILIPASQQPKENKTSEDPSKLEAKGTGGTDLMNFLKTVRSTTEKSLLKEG
Consider `CC1(C)OC2=C(C(=O)c3ccccc3C2=O)C2OC21` (centres undefined), for which half-maximal inhibition (IC50) required 4950 nM.

Regarding `CC1=C(SCC(NC(=O)CCC(N)C(=O)O)C(=O)NCC(=O)O)C(=O)c2c(O)cccc2C1=O` (centres undefined), the IC50 was 880 nM. On to `CCCCNC1C2=C(OC(C)(C)C1O)C(=O)c1ccccc1C2=O` (centres undefined), for which the half-maximal inhibitory concentration (IC50) was 130 nM. Then `CC1(C)C=CC2=C(O1)C(=O)c1cc(O)ccc1C2=O`, with 2000 nM.

As a reminder, the IC50 is the point on the concentration scale where inhibition reaches its midpoint. The low end stands for higher potency, the high end for lower potency.

Source of the values: ChEMBL document CHEMBL1240438, “Identification of potent virtual leads to design novel indoleamine 2,3-dioxygenase inhibitors: pharmacophore modeling and molecular docking studies” (Eur J Med Chem, 2010).
